Assay results: the NIST ThermoML archive (doi:10.1016/j.tca.2009.07.008)
± gives the expanded uncertainty stated by the source.

Assay: mn = molality of the nth substance listed, in mol/kg
Conditions: 303.15 K, 101 kPa, Liquid, Capillary tube (Ostwald / Ubbelohde) method

CCCNCCC [dipropylamine] + C1COCCO1
Conditions | viscosity [mPa·s]
m1 = 0.0998 | 1.062 ± 0.0078
m1 = 0.2282 | 1.05 ± 0.0077
m1 = 0.341 | 1.039 ± 0.0077
m1 = 0.4787 | 1.027 ± 0.0077
m1 = 0.6261 | 1.012 ± 0.0076
m1 = 0.7266 | 1.001 ± 0.0075
m1 = 0.8461 | 0.9902 ± 0.0075
m1 = 0.9821 | 0.9801 ± 0.0075
m1 = 1.149 | 0.9661 ± 0.0074

CCCN(CCC)CCC [tripropylamine] + C1COCCO1
Conditions | viscosity [mPa·s]
m1 = 0.1093 | 1.06 ± 0.0078
m1 = 0.2293 | 1.045 ± 0.0077
m1 = 0.3509 | 1.032 ± 0.0077
m1 = 0.4408 | 1.022 ± 0.0076
m1 = 0.5919 | 1.007 ± 0.0076
m1 = 0.7147 | 0.9934 ± 0.0075
m1 = 0.8383 | 0.9807 ± 0.0075
m1 = 0.9836 | 0.9694 ± 0.0074
m1 = 1.151 | 0.9571 ± 0.0074

CCN(CC)CC [triethylamine] + C1CCOC1
Conditions | viscosity [mPa·s]
m1 = 0.1482 | 0.327 ± 0.0047
m1 = 0.3064 | 0.3293 ± 0.0047
m1 = 0.4546 | 0.3307 ± 0.0047
m1 = 0.588 | 0.3315 ± 0.0047
m1 = 0.7856 | 0.3361 ± 0.0047
m1 = 0.8993 | 0.3349 ± 0.0047
m1 = 1.056 | 0.3376 ± 0.0048
m1 = 1.24 | 0.3386 ± 0.0048
m1 = 1.418 | 0.341 ± 0.0048

CCCN(CCC)CCC [tripropylamine] + C1CCOC1
Conditions | viscosity [mPa·s]
m1 = 0.1317 | 0.3305 ± 0.0047
m1 = 0.2429 | 0.3364 ± 0.0047
m1 = 0.3465 | 0.3397 ± 0.0047
m1 = 0.4545 | 0.3447 ± 0.0048
m1 = 0.5811 | 0.3523 ± 0.0048
m1 = 0.6842 | 0.3577 ± 0.0048
m1 = 0.8378 | 0.3607 ± 0.0048
m1 = 0.9371 | 0.3681 ± 0.0049
m1 = 1.114 | 0.3753 ± 0.0049

CCCN [propan-1-amine] + C1COCCO1
Conditions | viscosity [mPa·s]
m1 = 0.1086 | 1.06 ± 0.0078
m1 = 0.2456 | 1.043 ± 0.0077
m1 = 0.3295 | 1.028 ± 0.0076
m1 = 0.478 | 1.014 ± 0.0076
m1 = 0.5767 | 0.9987 ± 0.0075
m1 = 0.7164 | 0.9852 ± 0.0074
m1 = 0.8321 | 0.9693 ± 0.0074
m1 = 1.028 | 0.9504 ± 0.0073
m1 = 1.116 | 0.9395 ± 0.0072

CCCNCCC [dipropylamine] + C1CCOC1
Conditions | viscosity [mPa·s]
m1 = 0.1794 | 0.332 ± 0.0047
m1 = 0.285 | 0.335 ± 0.0047
m1 = 0.4155 | 0.3388 ± 0.0047
m1 = 0.5881 | 0.3437 ± 0.0048
m1 = 0.7109 | 0.3491 ± 0.0048
m1 = 0.9435 | 0.3545 ± 0.0048
m1 = 1.051 | 0.3574 ± 0.0048
m1 = 1.198 | 0.364 ± 0.0048
m1 = 1.357 | 0.3717 ± 0.0049

CCCCN [1-butanamine] + C1COCCO1
Conditions | viscosity [mPa·s]
m1 = 0.1085 | 1.06 ± 0.0078
m1 = 0.2365 | 1.046 ± 0.0077
m1 = 0.3679 | 1.032 ± 0.0077
m1 = 0.4745 | 1.02 ± 0.0076
m1 = 0.5834 | 1.007 ± 0.0076
m1 = 0.7574 | 0.9893 ± 0.0075
m1 = 0.8872 | 0.9764 ± 0.0074
m1 = 1.004 | 0.9652 ± 0.0074
m1 = 1.116 | 0.9543 ± 0.0073

CCCCN [1-butanamine] + C1CCOC1
Conditions | viscosity [mPa·s]
m1 = 0.1429 | 0.329 ± 0.0047
m1 = 0.2304 | 0.3312 ± 0.0047
m1 = 0.5054 | 0.336 ± 0.0047
m1 = 0.588 | 0.3398 ± 0.0047
m1 = 0.7153 | 0.3442 ± 0.0048
m1 = 0.8391 | 0.3481 ± 0.0048
m1 = 1.009 | 0.351 ± 0.0048
m1 = 1.27 | 0.3549 ± 0.0048
m1 = 1.407 | 0.3619 ± 0.0048

CCCCN(CCCC)CCCC [tributylamine] + C1CCOC1
Conditions | viscosity [mPa·s]
m1 = 0.1637 | 0.3385 ± 0.0047
m1 = 0.3071 | 0.3517 ± 0.0048
m1 = 0.4107 | 0.3637 ± 0.0048
m1 = 0.5836 | 0.3764 ± 0.0049
m1 = 0.7131 | 0.3894 ± 0.0049
m1 = 0.9025 | 0.4036 ± 0.005
m1 = 1.125 | 0.4181 ± 0.005
m1 = 1.204 | 0.4323 ± 0.0051
m1 = 1.31 | 0.4444 ± 0.0051
